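96-well plates; 48 h exposure; 5 concentrations. Endpoints by linear interpolation between flanking doses. Not reached: highest tested concentration assigned. TGI denotes the concentration required for complete inhibition of growth.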
Experiments:
Experiment in all cases: NCI anticancer screen, dose series, 48 h
[1] = tested on: CAKI-1 renal
[2] = tested on: DU-145 prostate
[3] = tested on: SK-MEL-2 melanoma
[4] = tested on: HCT-15 colon
[5] = tested on: HCT-116 colon
[6] = tested on: K-562 leukemia
[7] = tested on: M14 melanoma
[8] = tested on: SNB-75 CNS
[9] = tested on: 786-0 renal
[10] = tested on: NCI-H522 lung
[11] = tested on: TK-10 renal
[12] = tested on: IGROV1 ovarian
[13] = tested on: HOP-62 NSCLC
[14] = tested on: A549 NSCLC
[15] = tested on: SN12C renal
[16] = tested on: SK-MEL-28 melanoma
[17] = tested on: ACHN renal
[18] = tested on: OVCAR-5 ovarian
[19] = tested on: HCC-2998 colon
[20] = tested on: SR leukemia
[21] = tested on: NCI-H226 lung
[22] = tested on: MDA-N
[23] = tested on: NCI/ADR-RES ovarian
[24] = tested on: COLO 205 colon
[25] = tested on: MDA-MB-231 breast
[26] = tested on: PC-3 prostate
[27] = tested on: SW-620 colon
[28] = tested on: OVCAR-4 ovarian
[29] = tested on: KM12 colon
[30] = tested on: SK-OV-3 ovarian
[31] = tested on: MDA-MB-435
[32] = tested on: EKVX NSCLC
[33] = tested on: HS 578T breast
[34] = tested on: RPMI-8226 leukemia
[35] = tested on: HL-60(TB) leukemia
[36] = tested on: SK-MEL-5 melanoma
[37] = tested on: NCI-H460 lung
[38] = tested on: OVCAR-8 ovarian
[39] = tested on: LOX IMVI melanoma
[40] = tested on: U251 CNS
[41] = tested on: MOLT-4 leukemia
[42] = tested on: CCRF-CEM leukemia
[43] = tested on: SF-268 CNS
[44] = tested on: NCI-H23 lung
[45] = tested on: MCF7 breast
[46] = tested on: A498 renal
[47] = tested on: HOP-92 NSCLC
[48] = tested on: RXF 393 renal
[49] = tested on: SF-539 CNS
[50] = tested on: UACC-257 melanoma
[51] = tested on: MALME-3M melanoma
[52] = tested on: SF-295 CNS
[53] = tested on: HT29 colon
[54] = tested on: UACC-62 melanoma
[55] = tested on: SNB-19 CNS
[56] = tested on: OVCAR-3 ovarian
[57] = tested on: UO-31 renal
[58] = tested on: T-47D breast
[59] = tested on: BT-549 breast

COc1ccc(Cc2c(-c3ccc(C)cc3)n[nH]c(=O)c2C2C(=O)N(c3ccccc3)N=C2c2ccccc2)cc1 (stereo unspecified)
TGI [1]: > 88.6 µM
TGI [2]: > 100 µM
TGI [3]: 52.5 µM
TGI [4]: > 100 µM
TGI [5]: 46.4 µM
TGI [6]: > 76.6 µM
TGI [7]: 81.8 µM
TGI [8]: 81.3 µM
TGI [9]: > 100 µM
TGI [10]: > 100 µM
TGI [11]: 87.2 µM
TGI [12]: 85.1 µM
TGI [13]: > 100 µM
TGI [14]: 84.3 µM
TGI [15]: > 95.6 µM
TGI [16]: > 90.3 µM
TGI [17]: > 100 µM
TGI [18]: > 95.7 µM
TGI [19]: 79.5 µM
TGI [20]: > 79.3 µM
TGI [21]: 81.9 µM
TGI [22]: 58.3 µM
TGI [23]: 58 µM
TGI [24]: 40.3 µM
TGI [25]: > 90.4 µM
TGI [26]: > 91.8 µM
TGI [27]: > 100 µM
TGI [28]: > 100 µM
TGI [29]: 57.1 µM
TGI [30]: > 100 µM
TGI [31]: 45 µM
TGI [32]: 83.1 µM
TGI [33]: 82.9 µM
TGI [34]: 80.3 µM
TGI [35]: 67.6 µM
TGI [36]: 38.9 µM
TGI [37]: > 89.3 µM
TGI [38]: > 96.6 µM
TGI [39]: 46.6 µM
TGI [40]: > 100 µM
TGI [41]: > 67.7 µM
TGI [42]: > 78.8 µM
TGI [43]: > 100 µM
TGI [44]: 72.1 µM
TGI [45]: > 91.3 µM
TGI [46]: 65.4 µM
TGI [47]: 75.3 µM
TGI [48]: 57 µM
TGI [49]: 56.1 µM
TGI [50]: 81.2 µM
TGI [51]: 65.2 µM
TGI [52]: 60.8 µM
TGI [53]: > 100 µM
TGI [54]: 40.4 µM
TGI [55]: > 100 µM
TGI [56]: 45.8 µM
TGI [57]: > 100 µM
TGI [58]: > 100 µM

C(CCCCc1nnc(N2CCOCC2)o1)CCCc1nnc(N2CCOCC2)o1
TGI [1]: > 100 µM
TGI [2]: > 100 µM
TGI [3]: > 100 µM
TGI [4]: > 100 µM
TGI [5]: > 100 µM
TGI [6]: > 100 µM
TGI [7]: > 100 µM
TGI [8]: > 100 µM
TGI [9]: > 100 µM
TGI [11]: > 100 µM
TGI [12]: > 100 µM
TGI [59]: > 100 µM
TGI [13]: > 100 µM
TGI [14]: > 100 µM
TGI [15]: > 100 µM
TGI [16]: > 100 µM
TGI [17]: > 100 µM
TGI [18]: > 100 µM
TGI [21]: > 100 µM
TGI [22]: > 100 µM
TGI [23]: > 100 µM
TGI [24]: > 100 µM
TGI [25]: > 100 µM
TGI [26]: > 100 µM
TGI [27]: > 100 µM
TGI [28]: > 100 µM
TGI [29]: > 100 µM
TGI [30]: > 100 µM
TGI [31]: > 100 µM
TGI [32]: > 100 µM
TGI [35]: > 100 µM
TGI [36]: > 100 µM
TGI [37]: > 100 µM
TGI [38]: > 100 µM
TGI [39]: > 100 µM
TGI [40]: > 100 µM
TGI [41]: > 100 µM
TGI [42]: > 100 µM
TGI [44]: > 100 µM
TGI [45]: > 100 µM
TGI [46]: > 100 µM
TGI [47]: > 100 µM
TGI [48]: > 100 µM
TGI [49]: > 100 µM
TGI [50]: > 100 µM
TGI [52]: > 100 µM
TGI [53]: > 100 µM
TGI [55]: > 100 µM
TGI [56]: > 100 µM
TGI [57]: > 100 µM

CCN(CC)CC1CCCCN1CC(=O)N1c2ccccc2NC(=O)c2ccccc21 (stereo unspecified)
TGI [1]: > 100 µM
TGI [2]: > 100 µM
TGI [3]: > 100 µM
TGI [4]: > 100 µM
TGI [5]: > 100 µM
TGI [6]: > 100 µM
TGI [7]: > 100 µM
TGI [8]: > 100 µM
TGI [9]: > 100 µM
TGI [10]: > 100 µM
TGI [11]: > 100 µM
TGI [12]: > 100 µM
TGI [13]: > 100 µM
TGI [14]: > 100 µM
TGI [15]: > 100 µM
TGI [16]: > 100 µM
TGI [17]: > 100 µM
TGI [18]: > 100 µM
TGI [19]: > 100 µM
TGI [20]: > 100 µM
TGI [21]: > 100 µM
TGI [22]: > 100 µM
TGI [23]: > 100 µM
TGI [24]: > 100 µM
TGI [25]: > 100 µM
TGI [26]: > 100 µM
TGI [27]: > 100 µM
TGI [28]: > 100 µM
TGI [29]: > 100 µM
TGI [30]: > 100 µM
TGI [31]: > 100 µM
TGI [32]: > 100 µM
TGI [33]: > 100 µM
TGI [34]: > 100 µM
TGI [35]: > 100 µM
TGI [36]: > 100 µM
TGI [37]: > 100 µM
TGI [38]: > 100 µM
TGI [39]: > 100 µM
TGI [40]: > 100 µM
TGI [41]: > 100 µM
TGI [42]: > 100 µM
TGI [43]: > 100 µM
TGI [44]: > 100 µM
TGI [45]: > 100 µM
TGI [46]: > 100 µM
TGI [47]: > 100 µM
TGI [48]: > 100 µM
TGI [49]: > 100 µM
TGI [50]: > 100 µM
TGI [51]: > 100 µM
TGI [52]: > 100 µM
TGI [53]: > 100 µM
TGI [54]: > 100 µM
TGI [55]: > 100 µM
TGI [56]: > 100 µM
TGI [57]: 44.5 µM
TGI [58]: > 100 µM
